How the values were obtained:
[1] = Inhaled pharmacokinetics of nintedanib salt forms (intratracheal); assay type: in vivo, C57BL/6 mice; conditions: for half-life: C57BL/6, mouse, 1 mg/kg, read-out: Elimination half-life (alpha-phase); for Cmax: read-out: Cmax
[2] = Plasma and lung pharmacokinetics of nintedanib esylate, oral vs intratracheal aerosol; assay type: in vivo, C57BL/6 mice; conditions: for adverse effect (dyspnea): mice; for Cmax / half-life / AUC(0-t): female, C57BL/6, mouse; for half-life: read-out: Elimination half-life (alpha-phase)
[3] = Tier 3: compatibility in 30 mM NaCl with a second excipient; assay type: physicochemical
Method: Compatibility of nintedanib esylate and nintedanib esylate plus pirfenidone control with sodium chloride and a second excipient was assessed. […] The test solutions were filled into 10 mL clear Type I glass vials with Teflon lined rubber stopper and aluminum crimp caps and stored at ambient room condition away from light.

[4] = Inhaled pharmacokinetics of fixed combination nintedanib esylate and pirfenidone; assay type: in vivo, C57BL/6 mice; conditions: 10.0 mg/kg each IT; for half-life: read-out: Elimination half-life (alpha-phase)
Method: Plasma and lung tissue samples were taken 2, 5, 10, 20, 40 min and 1, 2, and 4 hours post dose. Nintedanib was extracted and quantitated as μg/mL plasma and μg/gram lung tissue.

[5] = Formulation screening: compatibility of nintedanib esylate with pirfenidone and osmolality adjusting agents (visual appearance); assay type: physicochemical
Method: Formulation screening of stand alone nintedanib esylate and in combination with pirfenidone were conducted. Commonly used ionic osmolality adjusting agents include sodium chloride, sodium citrate, magnesium chloride were evaluated as excipients. In addition, mannitol and propylene glycol, which are […] osmolality adjusting agents, were also tested.
The resulting solutions, if not immediately precipitated, were filled into clear Type I glass vials and sealed with a Teflon lined rubber stopper and aluminum crimp cap. The test solutions were stored at ambient room condition in the dark. Visual appearance was periodically assessed within 24 hours and periodically thereafter. Table 31 summarizes the initial formulation screening results.

[6] = Compatibility of nintedanib esylate with container system and membrane filter (nylon filter, LDPE vials); assay type: physicochemical
Description: Compatibility of Nintedanib Esylate with Container System and Type of Membrane Filter: The objective of this study is to determine the suitability of low density polyethylene (LDPE) vials and nylon filters for use with nintedanib esylate standalone and nintedanib esylate plus pirfenidone combination formulations. The test samples were stored at ambient room condition and periodically check for precipitation or crystallization.

[7] = system: bleomycin pulmonary fibrosis; assay: Therapeutic bleomycin pulmonary fibrosis model: Ashcroft fibrosis score, hydroxyproline; assay type: in vivo, Sprague Dawley rats; conditions: Oral Gavage (PO) 60 mg/kg BID; bleomycin rats
Method: Briefly, acclimated Sprague Dawley male rats (c.a. 253 grams at first dosing) were administered bleomycin on days 1, 2, 3 and 6 by the oropharyngeal (OP) route. On the eighth day, treatment was initiated with either saline or nintedanib. […] Ten animals were enrolled into each dosing group. […] All animals were euthanized on day 28d. Body weights were collected throughout the study, with lung weights at termination (Table 55). Left lungs were extracted and measured for hydroxyproline content, while […] were subjected to histology for Ashcroft fibrosis score determination (Table 56).

[8] = Therapeutic bleomycin model: body weight gain, lung weight-to-body weight ratio, tolerability; conditions: Oral Gavage (PO), dose group printed 0 mg/kg, BID; bleomycin rats
[9] = Tier 1: nintedanib esylate-excipient compatibility study; assay type: physicochemical
Method: Test solution 101-01-16-00 was filtered through a 0.22 micron PVDF filter, all other formulations were not filtered. The test solutions were filled into 10 mL clear Type I glass vials and sealed with Teflon-lined rubber stopper and aluminum crimp cap.

[10] = Therapeutic bleomycin model: dose levels and lung pharmacokinetic comparison; assay type: in vivo, Sprague Dawley rats; conditions: Oral Gavage (PO) 60.0 mg/kg; rat
[11] = 1 mg/kg (base equivalent) IT, mice
[12] = 100.0 mg/kg PO, Lung (whole lung homogenate)
[13] = inhaled or intranasal, 2.5 mg/kg IT, Lung (whole lung homogenate)
[14] = inhaled or intranasal, 2.5 mg/kg IT, Plasma
[15] = inhaled or intranasal, 10.0 mg/kg IT, Lung (whole lung homogenate)
[16] = inhaled or intranasal, 10.0 mg/kg IT, Plasma
[17] = female, C57BL/6, mouse, inhaled or intranasal, Lung (whole lung homogenate)
[18] = female, C57BL/6, mouse, inhaled or intranasal, Plasma

Structure (SMILES): COC(=O)c1ccc2c(c1)NC(=O)/C2=C(\Nc1ccc(N(C)C(=O)CN2CCN(C)CC2)cc1)c1ccccc1 [Nintedanib esylate]
- Lung AUC [1, 11]: about 20 mg·hr/kg
- lung half-life [1, 11]: about 3 minutes
- half-life ([1]; female, lung (whole lung homogenate), inhaled or intranasal, lung (whole lung homogenate), 1.0 mg/kg IT, C57BL/6 mice): 2.9 min
- half-life ([1]; female, plasma, inhaled or intranasal, plasma, 1.0 mg/kg IT, C57BL/6 mice): 2 min
- Cmax ([1]; female, mouse, inhaled or intranasal, lung (whole lung homogenate), 1.0 mg/kg IT, C57BL/6 mice): 34500 ng/g
- Cmax ([1]; female, mouse, inhaled or intranasal, plasma, 1.0 mg/kg IT (base equivalent), C57BL/6 mice): 400 ng/mL
- AUC(0-t) ([1]; female, mouse, inhaled or intranasal, plasma, 1.0 mg/kg IT, C57BL/6 mice): 200 ng·h/mL
- AUC 0-last ([1]; lung (whole lung homogenate), 1.0 mg/kg IT, C57BL/6 mice): 21.7 mg·h/kg
- adverse effect (dyspnea) ([2]; 2.5 mg/kg IT): not observed
- AUC 0-last ([2]; 2.5 mg/kg IT, Lung (whole lung homogenate)): 67.8 mg·h/kg
- adverse effect (dyspnea) ([2]; 10 mg/kg IT): caused dyspnea
- AUC 0-last ([2]; 10.0 mg/kg IT, Lung (whole lung homogenate)): 167.8 mg·h/kg
- AUC 0-last [2, 12]: 24.1 mg·h/kg
- Cmax [2, 13]: 57500 ng/g
- half-life [2, 13]: 3.8 min
- AUC(0-t) [2, 14]: 200 ng·h/mL
- Cmax [2, 14]: 700 ng/mL
- half-life [2, 14]: 2.3 min
- Cmax [2, 15]: 250000 ng/g
- half-life [2, 15]: 5.6 min
- AUC(0-t) [2, 16]: 600 ng·h/mL
- Cmax [2, 16]: 2700 ng/mL
- half-life [2, 16]: 2.3 min
- Cmax [2, 12]: 12100 ng/g
- AUC(0-t) ([2]; 100.0 mg/kg PO, Plasma): 1800 ng·h/mL
- Cmax ([2]; 100.0 mg/kg PO, Plasma): 600 ng/mL
- half-life ([2]; 100.0 mg/kg PO, Plasma): 112 min
- stability by itself in 30 mM NaCl [3]: not stable
- AUC 0-last ([4]; Lung (whole lung homogenate)): 68.4 mg·h/kg
- Cmax [4, 17]: 171000 ng/g
- half-life [4, 17]: 1.8 min
- AUC(0-t) [4, 18]: 1000 ng·h/mL
- Cmax [4, 18]: 2800 ng/mL
- half-life [4, 18]: 7.7 min
- compatibility with sodium citrate ([5]; aqueous solution): incompatible
- compatibility with sodium chloride ([5]; sodium chloride at 30 mM): may be compatible
- compatibility with sodium chloride ([5]; sodium chloride at 60 mM or higher): incompatible
- compatibility with NaCl ([6]; NaCl at 30 mM, in absence of pirfenidone, irrespective of container type and filtration material): incompatible
- suitability of clear borosilicate glass vial ([6]; even at 0.5 mg/mL nintedanib esylate): not suitable
- suitability of LDPE vial ([6]; nintedanib esylate and nintedanib esylate in 1.5% propylene glycol solutions): suitable
- Fibrosis Score (SD) (Ashcroft) [7]: 2.3 (0.45)
- Fibrosis Score, Delta to Vehicle (%) [7]: 11.5%
- Body Weight Gain, Delta to Sham (%) [8]: −46.9%
- compatibility with clear borosilicate glass vial [9]: not compatible
- compatibility with PVDF membrane filter ([9]; 0.22 μm): not compatible
- Lung AUC [10]: 29.3 mg·h/kg
- Lung Cmax [10]: 4.4 µg/g

Reference: patent US12090225B2 (Avalyn Pharma Inc., priority 2018, dated 2024)
